One assay has as its system UTI89. In words: Chronic cystitis mouse model, bladder titers after oral mannoside treatment. It counts as in vivo, E. coli (UPEC); host C3H/HeN mouse. To be noted: PO 50 mg/kg, 6 hours posttreatment, relative to PBS. As for the experimental part:
Mice were infected with the uropathogenic E. coli (UPEC) strain UTI89. Animals that established chronic infection were treated at day 12 post infection with 5 doses of 50 mg/kg of Mannoside 8 administered 8 h apart (mice treated with PBS in the same way were included as controls). Mice were sacrificed 48 h post initial dose and bladder titers were enumerated.
In order to determine the therapeutic potential of 6 for treating chronic UTIs, a unique preclinical murine model was adopted. In humans, the ultimate outcome of UPEC infection of the urinary tract ranges from asymptomatic bacteriuria to acute self-limiting infection to chronic/recurrent UTI. Similarly, the outcome of UTI in C3H/HeN mice ranges from self-limiting to long-lasting, chronic cystitis characterized by persistent, high titer bacteriuria (>10^4 colony forming units (CFU)/ml), high titer bacterial bladder burdens at sacrifice >2 weeks post-infection (wpi), chronic inflammation, and urothelial necrosis. […] Thus, C3H/HeN mice were infected with 1×10^7 CFU of UTI89 and mice developing chronic cystitis, as determined by persistent urine titers of […] through 2 weeks post infection (wpi), were PO treated at 2 wpi with 6 at a single dose of 100 or 50 mg/kg to evaluate the ability of mannoside to treat UTI. 6 hours post-treatment bacterial counts in the bladder were enumerated. […]

The next assay addresses FimH (Escherichia coli, UniProt Q1R2J4).

Where “and” joins values, the source holds several entries; their conditions need not be identical. Equal entries are not always repeated.
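Throughout, for HAI: hemagglutination inhibition of guinea pig erythrocytes agglutinated by type 1 piliated uropathogenic E. coli via FimH mannose binding, quantified through serial dilutions of compound.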
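Throughout, for fold better (HAI): hemagglutination inhibition of guinea pig erythrocytes agglutinated by type 1 piliated uropathogenic E. coli via FimH mannose binding, quantified through serial dilutions of compound.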
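Throughout, for fold improvement (HAI): hemagglutination inhibition of guinea pig erythrocytes agglutinated by type 1 piliated uropathogenic E. coli via FimH mannose binding, quantified through serial dilutions of compound.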
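Throughout, for fold more potent in vitro: hemagglutination inhibition of guinea pig erythrocytes agglutinated by type 1 piliated uropathogenic E. coli via FimH mannose binding, quantified through serial dilutions of compound.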

Procedure for FimH: In some embodiments, activity of the compound is measured using hemmagglutination titer of guinea pig red blood cells. Hemagglutination of guinea pig red blood cells by type1 piliated UPEC is dependent upon FimH mannose binding ability and serial dilutions allow a quantitative analysis.
Biological activity against FimH was evaluated using a guinea pig red blood cell-based hemagglutination (HA) assay (ref) in which the concentration of the mannoside on reducing agglutination by 50% was used as the primary endpoint (50% HA titer).
Hemagglutination of guinea pig red blood cells by type1 piliated UPEC is dependent upon FimH mannose binding ability. Serial dilutions allow a quantitative analysis using this assay.
Hemagglutination assays for mannose-sensitive agglutination of guinea pig red blood cells were performed as previously described.

For `CNC(=O)c1cc(C(=O)NC)cc(-c2ccc(O[C@H]3O[C@H](CO)[C@@H](O)[C@H](O)[C@@H]3O)c(C(F)(F)F)c2)c1` [Compound 10, N1,N3-dimethyl-5-[3-(trifluoromethyl)-4-[(2R,3S,4S,5S,6R)-3,4,5-trihydroxy-6-(hydroxymethyl)tetrahydropyran-2-yl]oxy-phenyl]benzene-1,3-dicarboxamide], the “reduction in bladder bacterial counts” value in the assay with UTI89 was 4 log and 3 log. Also, the “fold more potent in vitro” value on FimH (10 relative to 8, Examples 25-29 numbering) is recorded as 8 fold. At FimH (Examples 25-29 numbering), the HAI worked out at 8 nM. Also, the “fold improvement (HAI)” value on FimH (over butyl-α-D-mannoside) is on record as 15,000 fold. Moreover, on FimH (than lead 6, Examples 25-29 numbering), the “fold better (HAI)” value is 50 fold.
